Laboratory results taken from patent US20190125745A1, “TREATMENT AND DIAGNOSIS OF CANCER” (Rgenix, Inc., priority 2014, published 2019).
Counter-ions that a name gives are not always drawn.

Tests used:
[1] = system: RCC human renal cancer cells, PANC1 human pancreatic cancer cells, H460 human lung cancer cells; assay: Trans-well matrigel invasion of renal, pancreatic and lung cancer cells; type: cell-based; details: 1 μM, 72 hours
Procedure: FIG. 17. Treatment with the LXR agonist GW3965 inhibits In Vitro tumor cell invasion of renal cancer, pancreatic cancer, and lung cancer.
Following serum starvation, the cells were subjected to the trans-well invasion assay using a matrigel invasion chamber system (354480, BD Biosciences). Invasion chambers were pre-equilibrated prior to the assay by adding 0.5 mL of starvation media to the top and bottom wells. Meanwhile, cancer cells were trypsinized and viable cells were counted using trypan blue. Cancer cells were then resuspended at a concentration of 1×10^5 cells/1 mL starvation media, and 0.5 mL of cell suspension, containing 5×10^4 cells, was seeded into each trans-well. The invasion assay was allowed to proceed for 24 hours at 37′C. […] Following fixation, the inserts were washed in PBS and then cut out and mounted onto slides using VectaShield mounting medium containing DAPI nuclear stain (H-1000, Vector Laboratories). The basal side of each insert was imaged using an inverted fluorescence microscope (Zeiss Axiovert 40 CFL) at 5× magnification, and the number of DAPI-positive cells was quantified using ImageJ.

[2] = system: amyloid plaque pathology and memory deficits; details: oral delivery; cited from earlier work
[3] = system: MeWo, HT-144, SK-Mel-2, SK-Mel-334.2 human melanoma cells; assay: Cell invasion assay (trans-well matrigel); type: cell-based; details: MeWo, 1 μM, 72 hours
Source text: FIG. 2. Activation of LXRβ Signaling Suppresses Melanoma Cell Invasion and Endothelial Recruitment. (A) Heat-map depicting microarray-based expression levels of LXR and RXR isoforms in the NCI-60 melanoma cell line collection. The heat map for these genes is extracted from the larger nuclear hormone receptor family heat map (FIG. 3). Color-map key indicates the change in standard deviations for the expression value of each receptor relative to the average expression value of all microarray-profiled genes (>39,000 transcript variants) in each cell line. (B) Cell invasion by 1×10^5 MeWo, 5×10^4 HT-144, 5×10^5 SK-Mel-2, and 5×10^4 SK-Mel-334.2 human melanoma cells. Cells were treated with DMSO, GW3965, T0901317, or Bexarotene at 1 μM for 72 hours and subjected to a trans-well matrigel invasion assay. n=4-8. (C) 5×10^4 MeWo, HT-144, SK-Mel-2, and SK-Mel-334.2 human melanoma cells were tested for their ability to recruit 1×10^5 endothelial cells in a trans-well migration assay, following treatment of the melanoma cells with DMSO, GW3965, T0901317, or Bexarotene at 1 μM for 72 hours. n=4-8. […] Scale bar, 50 μm. *p<0.05, **p<0.01, ***p<0.001, ****p<0.0001.
The cell invasion assay was performed as previously described in detail (Pencheva et al., 2012) using a trans-well matrigel invasion chamber system (354480, BD Biosciences). In brief, various melanoma cells were cultured in the presence of DMSO, GW3965, T0901317, or Bexarotene at 1 μM for 56 hours, after which melanoma cells were switched to starvation media (0.2% FBS) for 16 hours in the presence of each drug. Following starvation, cells were seeded into matrigel-coated trans-well inserts, and the invasion assay was allowed to proceed for 24 hours at […]. For ApoE antibody neutralization experiments, 40 μg/mL 1 D7 anti-ApoE blocking antibody (Heart Institute, University of Ottawa, Ottawa, Canada) or […] anti-IgG control antibody (AB-108-C, R&D Systems, Minneapolis, Minn.) was added to each trans-well insert at the start of the assay.
The cells were then serum starved for 16 hours in 0.2% FBS media in the presence of each corresponding drug or DMSO. Following serum starvation, the cells were subjected to the trans-well invasion assay using a matrigel invasion chamber system (354480, BD Biosciences). Invasion chambers were pre-equilibrated prior to the assay by adding 0.5 mL of starvation media to the top and bottom wells. Meanwhile, cancer cells were trypsinized and viable cells were counted using trypan blue. Cancer cells were then resuspended at a concentration of 2×10^5 cells/1 mL starvation media, and 0.5 mL of cell suspension, containing 1×10^5 cells, was seeded into each trans-well. The invasion assay was allowed to proceed for 24 hours at 37° C. […] Following fixation, the inserts were washed in PBS, cut out, and mounted onto slides using VectaShield mounting medium containing DAPI nuclear stain (H-1000, Vector Laboratories). The basal side of each insert was imaged using an inverted fluorescence microscope (Zeiss Axiovert 40 CFL) at 5× magnification, and the number of DAPI-positive cells was quantified using ImageJ.

[4] = system: SK-Mel-2 human melanoma cells; assay: Subcutaneous SK-Mel-2 tumor growth in immunocompromised mice; type: in vivo; details: oral
Procedure: FIG. 4. Therapeutic LXR Activation Inhibits Melanoma Tumor Growth. […] Representative tumor images shown correspond to tumors extracted at the final day (d12). n=10-18 (A), 8-10 (B). (C-E) Primary tumor growth by 1×10^6 MeWo (C), […] SK-Mel-334.2 (D), and 2×10^6 SK-Mel-2 (E) human melanoma cells subcutaneously injected into immunocompromised mice. […] Tumor images shown correspond to last day of measurements. n=6-34 (C), 8 (D), 5 (E). (F) 5×10^4 B16F10 cells were injected subcutaneously into C57BL/6-WT mice. Upon tumor growth to 150 mm^3, mice were fed continuously with a control chow or a chow containing GW3965 (150 mg/kg), and tumor growth was measured daily. n=6-13. […] Tumor volume was calculated as (small diameter)^2×(large diameter)/2. […] Scale bars, 5 mm (A-D), 50 μm (J, K), 25 μm (L).

[5] = in vivo; cited from earlier work

Compound: O=C(O)Cc1cccc(OCCCN(Cc2cccc(C(F)(F)F)c2Cl)CC(c2ccccc2)c2ccccc2)c1 [GW3965 108, 3-[3-[N-(2-Chloro-3-trifluoromethylbenzyl)-(2,2-diphenylethyl)amino]propyloxy] phenylacetic acid hydrochloride]
- tumor cell invasion in all three cancer types tested [1]: inhibition
- amyloid plaque pathology and memory deficits [2]: improve amyloid plaque pathology and memory deficits
- suppression of cell invasion and endothelial recruitment upon knockdown of ApoE in melanoma cells [3]: blocked
- ability to suppress invasion and endothelial recruitment upon knockdown of melanoma LXRβ, but not LXRα ([3]; HT-144): abrogated
- inhibition of tumor growth, SK-Mel-2 [4]: 49%
- crossing of the blood brain barrier [5]: can efficiently cross the blood brain barrier
